Patent publication US20050234046A1 (Kalypsys, Inc., priority 2004, published 2005)

Columns and labels:
Experiment in all cases: Transient transfection (transactivation) assay in CV-1 cells, GAL4-PPAR chimera, luciferase reporter
Format in all cases: cell-based
PPAR gamma = biological target: T1, PPAR gamma (Homo sapiens, UniProt P37231)
T1 construct: expressed in transfected cells; host or cells: CV-1 cells
T1 sequence (P37231 238-503 limits assumed): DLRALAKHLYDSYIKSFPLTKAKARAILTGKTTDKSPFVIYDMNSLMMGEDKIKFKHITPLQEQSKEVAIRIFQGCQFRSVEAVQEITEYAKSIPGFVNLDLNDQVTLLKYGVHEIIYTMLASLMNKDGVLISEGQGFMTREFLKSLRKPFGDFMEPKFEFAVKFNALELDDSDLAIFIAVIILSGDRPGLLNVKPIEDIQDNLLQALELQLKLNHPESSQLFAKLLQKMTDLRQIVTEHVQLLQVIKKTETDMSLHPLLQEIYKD

PPAR delta = biological target: T2, PPAR delta (Homo sapiens, UniProt Q03181)
T2 construct: expressed in transfected cells; host or cells: CV-1 cells
T2 sequence (Q03181 211-439 limits assumed): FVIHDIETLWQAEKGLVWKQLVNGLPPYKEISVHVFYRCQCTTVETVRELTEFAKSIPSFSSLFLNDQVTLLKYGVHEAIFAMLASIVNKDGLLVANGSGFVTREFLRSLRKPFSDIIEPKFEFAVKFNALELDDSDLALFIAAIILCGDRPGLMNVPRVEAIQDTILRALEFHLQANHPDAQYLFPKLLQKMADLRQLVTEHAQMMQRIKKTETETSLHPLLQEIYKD

PPAR alpha = biological target: T3, PPAR alpha (Homo sapiens, UniProt Q07869)
T3 construct: expressed in transfected cells; host or cells: CV-1 cells
T3 sequence (Q07869 239-466 limits assumed): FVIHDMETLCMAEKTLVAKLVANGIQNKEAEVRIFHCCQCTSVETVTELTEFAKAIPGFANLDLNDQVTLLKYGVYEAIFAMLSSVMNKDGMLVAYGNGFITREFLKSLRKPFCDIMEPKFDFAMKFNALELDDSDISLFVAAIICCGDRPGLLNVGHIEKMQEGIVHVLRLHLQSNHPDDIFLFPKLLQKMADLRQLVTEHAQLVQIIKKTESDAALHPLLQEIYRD
How it was run: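 GAL4 DNA-binding domain fused to PPAR ligand binding domain, co-transfected into CV-1 cells with a luciferase reporter carrying four or five GAL4 sites. Replated cells in phenol-red free DME with 5% delipidated calf serum were treated with compound or 1% DMSO for 20-24 hours; luciferase read for EC50 and efficacy.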

Row | SMILES | EC50 (PPAR gamma) | EC50 (PPAR delta) | EC50 (PPAR alpha)
1 | C[C@@H]1CN(c2ccc(OC(F)(F)F)cc2)C[C@H](C)N1S(=O)(=O)c1cccc(CC(=O)O)c1 [Example 109, {3-[2,6-Dimethyl-4-(4-trifluoromethoxy-phenyl)-piperazine-1-sulfonyl]-phenyl}-acetic acid] | > 100 µM | < 5 µM | 5 to 100 µM
2 | Cc1cc(CC(=O)O)cc(S(=O)(=O)N2[C@H](C)CN(c3ccc(OC(F)(F)F)cc3)C[C@@H]2C)c1 [Example 110, {3-[2,6-Dimethyl-4-(4-trifluoromethoxy-phenyl)-piperazine-1-sulfonyl]-5-methyl-phenyl}-acetic acid] | 5 to 100 µM | < 5 µM | 5 to 100 µM
3 | C[C@@H]1CN(c2ccc(OC(F)(F)F)cc2)C[C@H](C)N1S(=O)(=O)c1cc(CC(=O)O)cc(C(F)(F)F)c1 [Example 111, {3-[2,6-Dimethyl-4-(4-trifluoromethoxy-phenyl)-piperazine-1-sulfonyl]-5-trifluoromethyl-phenyl}-acetic acid] | 5 to 100 µM | < 5 µM | 5 to 100 µM
4 | Cc1cc(CC(=O)O)cc(S(=O)(=O)N2[C@H](C)CN(c3ccc(C(F)(F)F)c(Cl)c3)C[C@@H]2C)c1 [Example 112, {3-[4-(3-Chloro-4-trifluoromethyl-phenyl)-2,6-dimethyl-piperazine-1-sulfonyl]-5-methyl-phenyl}-acetic acid] | > 100 µM | < 5 µM | 5 to 100 µM
5 | C[C@@H]1CN(c2ccc(C(F)(F)F)c(F)c2)C[C@H](C)N1S(=O)(=O)c1cccc(CC(=O)O)c1 [Example 113, {3-[4-(3-Fluoro-4-trifluoromethyl-phenyl)-2,6-dimethyl-piperazine-1-sulfonyl]-phenyl}-acetic acid] | > 100 µM | < 5 µM | 5 to 100 µM
6 | C[C@@H]1CN(c2ccc(C(F)(F)F)c(Cl)c2)C[C@H](C)N1S(=O)(=O)c1cccc(CC(=O)O)c1 [Example 114, {3-[4-(3-Chloro-4-trifluoromethyl-phenyl)-2,6-dimethyl-piperazine-1-sulfonyl]-phenyl}-acetic acid] | > 100 µM | < 5 µM | 5 to 100 µM

More lines, now with the values ahead:

Row | EC50 (PPAR gamma) | EC50 (PPAR delta) | EC50 (PPAR alpha) | SMILES
7 | 5 to 100 µM | < 5 µM | 5 to 100 µM | O=C(O)Cc1cccc(S(=O)(=O)N2CCN(c3ccc(Cl)c(Cl)c3)CC2)c1 [Example 115, {3-[4-(3,4-Dichloro-phenyl)-piperazine-1-sulfonyl]-phenyl}-acetic acid]
8 | 5 to 100 µM | < 5 µM | > 100 µM | O=C(O)Cc1cccc(S(=O)(=O)N2CCN(c3ccc(Cl)cc3)CC2)c1 [Example 116, {3-[4-(4-Chloro-phenyl)-piperazine-1-sulfonyl]-phenyl}-acetic acid]
9 | 5 to 100 µM | < 5 µM | > 100 µM | Cc1ccc(N2CCN(S(=O)(=O)c3cccc(CC(=O)O)c3)CC2)c(C)c1 [Example 117, {3-[4-(2,4-Dimethyl-phenyl)-piperazine-1-sulfonyl]-phenyl}-acetic acid]
10 | 5 to 100 µM | 5 to 100 µM | > 100 µM | Cc1cccc(N2CCN(S(=O)(=O)c3cccc(CC(=O)O)c3)CC2C)c1 (stereo not drawn) [Example 118, [3-(3-methyl-4-m-tolyl-piperazine-1-sulfonyl)-phenyl]-acetic acid]
11 | 5 to 100 µM | 5 to 100 µM | 5 to 100 µM | Cc1ccc(N2CCN(S(=O)(=O)c3cccc(CC(=O)O)c3)CC2)cc1C [Example 119, {3-[4-(3,4-Dimethyl-phenyl)-piperazine-1-sulfonyl]-phenyl}-acetic acid]
12 | > 100 µM | > 100 µM | > 100 µM | Cc1ccc(Cl)cc1N1CCN(S(=O)(=O)c2cccc(CC(=O)O)c2)CC1 [Example 120, {3-[4-(5-Chloro-2-methyl-phenyl)-piperazine-1-sulfonyl]-phenyl}-acetic acid]
13 | > 100 µM | > 100 µM | > 100 µM | O=C(O)Cc1cccc(S(=O)(=O)N2CCN(CCc3ccccc3)CC2)c1 [Example 121, [3-(4-phenethyl-piperazine-1-sulfonyl)-phenyl]-acetic acid]
